What was measured:
[1] = tested on: 4T1 tumor-bearing mice; test: Biodistribution in 4T1 tumor-bearing mice (tissue grinding, fluorescence analysis); format: in vivo; conditions: at 48 h versus 24 h
Experimental: In addition, in order to detect the difference in the distribution of free doxorubicin, D-NPs and H-NPs in tumors and other organs, 4T1 tumor-bearing mice are sacrificed at different time intervals after intravenous injection of different drugs, the organs of the mice are taken out for tissue grinding and extraction, and finally fluorescence analysis is performed. It can be seen that compared with free doxorubicin, D-NPs and H-NPs have higher enrichment rates in various organs and tumors of mice, which are about 1.52 and about 1.81 times (24 h) higher than free doxorubicin, respectively. […] From the above cytotoxicity and blood circulation experiments, it can be inferred that this is because compared with free doxorubicin, D-NPs and H-NPs have longer blood circulation capacity in the blood and are not easy to be cleared by cells.

[2] = tested on: human breast cancer cells (MBA-MD-231); test: Cytotoxicity to MBA-MD-231 cells; format: cell-based; conditions: incubated 48 h, different concentrations
Experimental: (§1) At the cellular level, the cytotoxicity of HDZ to cells is first tested. HDZ at different concentrations is incubated with mouse breast cancer cells (4T1), human breast cancer cells (MBA-MD-231), and vascular epithelial cells (HUVEC) for 48 h. […] Then, the cytotoxicity of D-NPs, C-NPs, H-NPs, and DOX with 4T1, MBA-MD-231, and HUVEC cells is subsequently tested. The experimental results are shown in FIG. 3B, FIG. 3C and FIG. 3D. […] This is because there is a polypeptide cRGD on the surface of C-NPs targeting the integrin αvβ3 overexpressed on the surface of 4T1 and MBA-MD-231 tumor cells, which can make more C-NPs enter the tumor cells and improve their cytotoxicity.

[3] = tested on: mouse breast cancer cells (4T1); test: Cytotoxicity to 4T1 cells; format: cell-based; conditions: incubated 48 h, different concentrations
Experimental: as §1

[4] = tested on: vascular epithelial cells (HUVEC); test: Cytotoxicity to HUVEC cells; format: cell-based; conditions: incubated 48 h, different concentrations
Experimental: as §1

COc1cccc2c1C(=O)c1c(O)c3c(c(O)c1C2=O)C[C@@](O)(C(=O)CO)C[C@@H]3O[C@H]1C[C@H](N)[C@H](O)[C@H](C)O1 [free doxorubicin, doxorubicin]
change of enrichment in the tumor site with extension of time [1]: decreases

NNc1nncc2ccccc12 [HDZ, hydralazine]
cytotoxicity [2]: not very toxic
cytotoxicity [3]: not very toxic
cytotoxicity [4]: not very toxic

— US11786525B1, “High-efficiency anti-tumor nano-drug delivery system containing hydralazine and preparation method thereof” (SHANGHAI INSTITUTE FOR ADVANCED STUDY ZHE JIANG UNIVERSITY, priority 2022, dated 2023)
